Reference: patent publication US20250257051A1, “SUBSTITUTED PYRIMIDINE COMPOUNDS AS TYK2 INHIBITORS” (1910 Genetics Inc., priority 2022, published 2025)
pKd: −log10 of the molar value. Counter-ions that a name gives are not always drawn.

The molecules below were run against human TYK2 (JH2domain-pseudokinase) (Homo sapiens (Human), UniProt P29597) (assay: TYK2 JH2 Domain Binding Assay (KINOMEscan competition binding)). Details: KINOMEscan; 11-point 3-fold dilution, top concentration 30,000 nM; Kd measurements in duplicate; read-out: TYK JH2 (Kd).
Protocol: Binding constants for compounds disclosed herein may be determined by the KINOMEscan® assay developed by DiscoveRx. KINOMEscan® is based on a competition binding assay that quantitatively measures the ability of a compound to compete with an immobilized, active-site directed ligand. The assay is performed by combining three components: DNA-tagged kinase; immobilized ligand; and a test compound. The ability of the test compound to compete with the immobilized ligand is measure via quantitative PCR of the DNA tag.
Binding constants for compounds disclosed herein against the JH2 domain are determined by the following protocol for a KINOMEscan® assay (DiscoveRx). A fusion protein of a partial length construct of human TYK2 (JH2domain-pseudokinase) (amino acids G556 to D888 based on reference sequence NP 003322.3) and the DNA binding domain of NFkB is expressed in transiently transfected HEK293 cells. From these HEK 293 cells, extracts are prepared in M-PER extraction buffer (Pierce) in the presence of Protease Inhibitor Cocktail Complete (Roche) and Phosphatase Inhibitor Cocktail Set II (Merck) per manufacturers' instructions. The TYK2 (JH2domain-pseudokinase) fusion protein is labeled with a chimeric double-stranded DNA tag containing the NFkB binding site (5′-GGGAATTCCC-3′) fused to an amplicon for qPCR readout, which is added directly to the expression extract (the final concentration of DNA-tag in the binding reaction is 0.1 nM).
Streptavidin-coated magnetic beads (Dynal M280) are treated with a biotinylated small molecule ligand for 30 minutes at room temperature to generate affinity resins for the binding assays. The liganded beads are blocked with excess biotin and washed with blocking buffer (SeaBlock (Pierce), 1% BSA, 0.05% Tween 20, 1 mM DTT) to remove unbound ligand and to reduce nonspecific binding.
Extracts are used directly in binding assays without any enzyme purification steps at a >10,000-fold overall stock dilution (final DNA tagged enzyme concentration<0.1 nM). Extracts are loaded with DNA-tag and diluted into the binding reaction in a two-step process. First extracts are diluted 1:100 in 1× binding buffer (PBS/0.05% Tween 20/10 mM DTT/0.1% BSA/[…] sonicated salmon sperm DNA) containing 10 nM DNA-tag. This dilution is allowed to equilibrate at room temperature for 15 minutes and then subsequently diluted 1:100 in 1× binding buffer. Test compounds are prepared as 111× stocks in 100% DMSO. Kds are determined using an 11-point 3-fold compound dilution series with three DMSO control points. All compounds for Kd measurements are distributed by acoustic transfer (non-contact dispensing) in 100% DMSO. The compounds are then diluted directly into the assays such that the final concentration of DMSO is 0.9%. All reactions performed in polypropylene 384-well plates. Each is a final volume of 0.02 mL. Assays are incubated with shaking for 1 hour at room temperature. Then the beads are pelleted and washed with wash buffer (lx PBS, 0.05% Tween 20) to remove displaced kinase and test compound. The washed beads are re-suspended in elution buffer (lx PBS, 0.05% Tween 20, 0.5 μM non-biotinylated affinity ligand) and incubated at room temperature with shaking for 30 minutes. The kinase concentration in the eluates is measured by qPCR. qPCR reactions are assembled by adding 2.5 μL of kinase eluate to 7.5 μL of qPCR master mix containing 0.15 μM amplicon primers and 0.15 μM amplicon probe. The qPCR protocol consists of a 10-minute hot start at 95° C., followed by 35 cycles of 95° C. for 15 seconds, 60° C. for 1 minute.
Test compounds are prepared as 111× stocks in 100% DMSO. Kds are determined using an 11-point 3-fold compound dilution series with three DMSO control points. All compounds for Kd measurements are distributed by acoustic transfer (non-contact dispensing) in 100% DMSO. The compounds are then diluted directly into the assays such that the final concentration of DMSO is 0.9%. […]

human TYK2 (JH2domain-pseudokinase), sequence (P29597 556-888): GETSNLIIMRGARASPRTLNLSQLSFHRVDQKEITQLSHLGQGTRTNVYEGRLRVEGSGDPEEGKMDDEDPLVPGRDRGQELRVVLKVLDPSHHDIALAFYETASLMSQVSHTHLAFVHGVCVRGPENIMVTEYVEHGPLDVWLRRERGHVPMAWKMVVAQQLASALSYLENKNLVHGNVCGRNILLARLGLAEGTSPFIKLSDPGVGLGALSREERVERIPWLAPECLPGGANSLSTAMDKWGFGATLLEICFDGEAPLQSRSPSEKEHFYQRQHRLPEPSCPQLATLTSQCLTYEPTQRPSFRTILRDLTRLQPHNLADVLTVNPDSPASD

| SMILES | pKd |
| --- | --- |
| CNC(=O)c1cnc(N2CCN(C(=O)OC(C)(C)C)CC2C)nc1Nc1cccc(-c2ncc(F)cn2)c1OC (centres unmarked) [Compound 26, Tert-Butyl 4-(4-((3-(5-fluoropyrimidin-2-yl)-2-methoxyphenyl)amino)-5-(methylcarbamoyl)pyrimidin-2-yl)-3-methylpiperazine-1-carboxylate] | 6.72 |
| CNC(=O)c1cnc(N2CCC(C(=O)O)CC2)nc1Nc1cccc(-c2ncc(F)cn2)c1OC [Compound 27, 1-(4-((3-(5-fluoropyrimidin-2-yl)-2-methoxyphenyl)amino)-5-(methylcarbamoyl)pyrimidin-2-yl)piperidine-4-carboxylic acid] | 7.44 |
| CCOC(=O)C1CCN(c2ncc(C(=O)NC)c(Nc3cccc(-c4ncc(F)cn4)c3OC)n2)CC1 [Compound 28, Ethyl 1-(4-((3-(5-fluoropyrimidin-2-yl)-2-methoxyphenyl)amino)-5-(methylcarbamoyl)pyrimidin-2-yl)piperidine-4-carboxylate] | 8.64 |
| CNC(=O)c1cnc(N2CCCNCC2)nc1Nc1ccccc1OC [Compound 29, 2-(1,4-diazepan-1-yl)-4-((2-methoxyphenyl)amino)-N-methylpyrimidine-5-carboxamide] | 5.34 |
| CNC(=O)c1cnc(N2CCCN(C(=O)OC(C)(C)C)CC2)nc1Nc1ccccc1OC [Compound 30, Tert-Butyl 4-(4-((2-methoxyphenyl)amino)-5-(methylcarbamoyl)pyrimidin-2-yl)-1,4-diazepane-1-carboxylate] | 4.36 |
| CNC(=O)c1cnc(N2CCNCC2C)nc1Nc1ccccc1OC (centres unmarked) [Compound 31, 4-((2-methoxyphenyl)amino)-N-methyl-2-(2-methylpiperazin-1-yl)pyrimidine-5-carboxamide Hydrochloride] | 5.32 |
| CNC(=O)c1cnc(N2CCN(C(=O)OC(C)(C)C)CC2C)nc1Nc1ccccc1OC (centres unmarked) [Compound 32, Tert-Butyl 4-(4-((2-methoxyphenyl)amino)-5-(methylcarbamoyl)pyrimidin-2-yl)-3-methylpiperazine-1-carboxylate] | 4.77 |
| CNC(=O)c1cnc(N2CCC(C(=O)O)CC2)nc1Nc1ccccc1OC [Compound 33, 1-(4-((2-methoxyphenyl)amino)-5-(methylcarbamoyl)pyrimidin-2-yl)piperidine-4-carboxylic Acid] | 6.15 |
| CCOC(=O)C1CCN(c2ncc(C(=O)NC)c(Nc3ccccc3OC)n2)CC1 [Compound 34, Ethyl 1-(4-((2-methoxyphenyl)amino)-5-(methylcarbamoyl)pyrimidin-2-yl)piperidine-4-carboxylate] | 6.12 |
| NC(=O)c1cnc(N2CCC(C(=O)O)CC2)nc1Nc1ccc(C2CC2)nc1 [Compound 35, 1-(5-carbamoyl-4-((6-cyclopropylpyridin-3-yl)amino)pyrimidin-2-yl)piperidine-4-carboxylic acid] | 6.15 |
| CCOC(=O)C1CCN(c2ncc(C(N)=O)c(Nc3ccc(C4CC4)nc3)n2)CC1 [Compound 36, Ethyl 1-(5-carbamoyl-4-((6-cyclopropylpyridin-3-yl)amino)pyrimidin-2-yl)piperidine-4-carboxylate] | 6.18 |
| COc1c(Nc2nc(N3CCN(C(=O)OC(C)(C)C)CC3C)ncc2C(N)=O)cccc1-c1ncc(F)cn1 (centres unmarked) [Compound 37, Tert-Butyl 4-(5-carbamoyl-4-((3-(5-fluoropyrimidin-2-yl)-2-methoxyphenyl)amino)pyrimidin-2-yl)-3-methylpiperazine-1-carboxylate] | 7.47 |
| COc1c(Nc2nc(N3CCC(C(=O)O)CC3)ncc2C(N)=O)cccc1-c1ncc(F)cn1 [Compound 38, 1-(5-carbamoyl-4-((3-(5-fluoropyrimidin-2-yl)-2-methoxyphenyl)amino)pyrimidin-2-yl)piperidine-4-carboxylic Acid] | 8.11 |
| CCOC(=O)C1CCN(c2ncc(C(N)=O)c(Nc3cccc(-c4ncc(F)cn4)c3OC)n2)CC1 [Compound 39, Ethyl 1-(5-carbamoyl-4-((3-(5-fluoropyrimidin-2-yl)-2-methoxyphenyl)amino)pyrimidin-2-yl)piperidine-4-carboxylate] | 9.09 |
